Results published in patent publication US7259232B1, “Preferred segments of neural thread protein” (Nymox Pharmaceutical Corporation, priority 2000, dated 2007).

How the values were obtained:
NTP [1] = test: NTP immunoreactivity of Harlil peptides conjugated to rabbit IgG (Example 1); format: binding; settings: peptides conjugated to maleimide activated Rabbit IgG
Source text: The following Harlil sequences were synthesized (Synpep, Dublin Calif.) and conjugated to maleimide activated Rabbit IgG (Jackson Immunoresearch, West Grove Pa.) and assessed for their NTP immunoreactivity. […] (SEQ ID NOS 4-11, respectively, in order of appearance)
Conjugation to carrier proteins was through a cysteine. Thus, peptides NTP-1 and NTP-2 produced mixed conjugate results because there is more than one cysteine residue. Therefore, for peptides NTP-5 and NTP-6, the secondary cysteine was blocked with ACM.

[2] = system: NTP3-RGG coated microtiter plate; test: Microtiter plate assay: inhibition of conjugate binding to Harlil peptide coated plate (Example 5); settings: monomer (unconjugated) peptide; peroxidase conjugated rabbit IgG; FIG. 2
Protocol: Preparation of Microtiter Plate: The Harlil peptide/immunoglobulin complex NTP3-RGG, in a ratio of 30:1 and prepared as in Example 4, was coated on an Immulon 4 microtiter plate (Dynex, Chantilly, Va.) at a concentration of 0.5 μg/well.
Standards: Recombinant NTP in TBS (described in de la Monte et al., J. of Neuropath. Exp. Neurol., 55:1038-1050 (1996)). 0.01% azide (Nymox Pharm. Corp., Lot 4-7-98), was serially diluted into TBS. 100 μl of each dilution was incubated at pH 3.5 for one hour. The dilutions were then washed for fifteen minutes in TBS, 0.1% albumin, and 0.05% Tween 80. This was followed by 3 washes in TBS and 0.05% Tween 80. Microtiter Plate Assay: 100 μl of 1:8000 dilution of peroxidase conjugated rabbit IgG (Jackson Immunoresearch, West Grove, Pa.) was then added and allowed to react for 30 minutes. The microtiter plate was washed twice with TBS and 0.05% Tween 80, followed by the addition of 150 μl of […] (TMB) (Serex Inc., Maywood, N.J.). The mixture was then incubated for 10 min. and stopped with 50 μl of 2 N HCl. Absorbance was read in a SLT 340 ATTC spectrophotometer.

NTP [3] = test: Affinity purification of NTP from AD patient urine on NTP-3 agarose column, activity by 7C Gold strip (Example 2); format: binding, human; settings: pH 2 eluate, gel bands assayed with 7C Gold, activity only in 35-45 kD band
Protocol: Preparation of the Urine Sample Containing NTP for Testing: The biological source of NTP used was the urine of a patient (BOU1) diagnosed with AD. Before application to the column material, the biological sample was processed according to the following protocol for processing of urine for AD testing: • 1. The urine was tested with an Ames Multistix™ (Bayer, Ind.). […] The urine was centrifuged at 3000×g for 15 minutes to remove cellular debris. • 3. The urine was filtered using a syringe through a 0.22 μm cellulose acetate filter, and the filtrate was brought to 0.05% azide. • 4. The resultant aliquot was placed in the top reservoir of an Amicon Centricon® YM-10 Millipore, and centrifuged at 3000×g for one hour. • 5. […] Protein Concentration: The protein concentration in the eluate was 108 μg, as determined by Coomassie Blue staining (BioRad, Hercules, Calif.). […] Protein concentration was 145 μg, as determined by Bicinchoninic Acid Kit (Cat. # 23223, BioRad). Absorbance corrected for the buffer at 280 nm was 390, indicating 390 μg of protein. The larger protein amount obtained with absorbance measurement is likely a result of the presence of a large amount of aromatic amino acids in NTP, which can cause overestimation of protein using this measurement technique. […]

rabbit IgG = test: Precipitation of rabbit immunoglobulin by Harlil peptide (Example 3); settings: start 3.4 mg RGG + 1 mg NTP-3, pH 7, dialyzed overnight
Protocol: The purpose of this example was to show the self-aggregation ability of a Harlil peptide. The Harlil peptide NTP-3 forms disulfide bonds (because of the cysteine residue) and dimerizes at neutral pH. Since the dimerized peptide can bind two immunoglobulins, it can cause precipitation.
1 mg of the Harlil peptide NTP-3 in 1 mL of dimethylsulfoxide (DMSO) was added to 3.4 mg of rabbit IgG (Jackson Immunoresearch, West Grove, Pa.) at pH 7. The mixture was allowed to dialyze over night, and a clear white precipitate was observed the next morning. The precipitate was removed by centrifugation and the protein concentration of the supernatant was determined by absorbance at 280 nm using a Perkin Elmer spectrophotometer model Lambda 3B. Precipitation of immunoglobulin is prevented at a low pH, e.g., pH of 3.5 or less 3.5.

NTP [4] = test: Protein G column pass-through of NTP positive and negative samples (Example 7); format: binding; settings: NTP positive and negative samples passed through Protein G column; NTP not significantly reduced
Source text: Protein G binds antibody through the Fc region. […] Specifically, since Harlil peptides recognize Harlil peptides, Harlil peptides recognize the Fc region of antibody, and Protein G recognizes the Fc region of antibody, this experiment determined whether Protein G recognizes NTP.
Both an NTP positive and an NTP negative sample were passed through a Protein G column.

Sequence of NTP (as listed by the source): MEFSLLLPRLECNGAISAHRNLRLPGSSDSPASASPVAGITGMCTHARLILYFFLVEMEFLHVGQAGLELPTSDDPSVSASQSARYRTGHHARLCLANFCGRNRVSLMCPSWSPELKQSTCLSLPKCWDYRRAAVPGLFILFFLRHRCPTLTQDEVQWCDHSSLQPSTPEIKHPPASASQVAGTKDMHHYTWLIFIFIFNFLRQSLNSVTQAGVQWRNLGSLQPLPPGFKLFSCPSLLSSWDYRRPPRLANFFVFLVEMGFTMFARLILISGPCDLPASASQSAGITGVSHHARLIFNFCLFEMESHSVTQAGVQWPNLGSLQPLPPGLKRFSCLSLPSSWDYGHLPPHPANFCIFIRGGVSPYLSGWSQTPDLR

Molecule	NTP immunoreactivity (NTP [1])	inhibition of conjugate binding to the plate [2]	binding of NTP by NTP-3 affinity column (NTP [3])	% Protein Precipitated (rabbit IgG)	binding of Protein G to NTP (NTP [4])
C A R Y R T G H H A R L M (CARYRTGHHARLM) [NTP-3]	good reactivity	inhibits the binding of conjugate to the plate	selectively bound the NTP protein	39%	
Protein G: Protein G, binds antibody through the Fc region; used as column (protein) TYKLILNGKTLKGETTTEAVDAATAEKVFKQYANDNGVDGEWTYDDATKTFTVTEKPEVIDASELTPAVTTYKLVINGKTLKGETTTKAVDAETAEKAFKQYANDNGVDGVWTYDDATKTFTVTE					does not bind to NTP
